# What was measured:
# [1] = tested on: P. aeruginosa PAM1154 carrying pUCP24 vector (PAM4175); test: MIC, CLSI broth microdilution; type: cell-based; settings: Pseudomonas aeruginosa, drug alone
# Source text: The effects of KPC mutations on resistance to various antibiotics were investigated. For these studies, pUCP24 plasmids carrying wild-type and mutant blaKPC-2 genes as well as the pUCP24 vector were transformed into PAM1154, an efflux-deficient strain of Pseudomonas aeruginosa. In this host, the effect of β-lactamases on β-lactam MIC is amplified due to the slowed uptake of β-lactams across the low-permeability outer membrane without interference by efflux of either β-lactams or BLIs. Consequently, this host allows detection of β-lactamase activity (as an MIC increase) of low-catalytic-efficiency enzymes that rely heavily on the low permeability of the outer membrane. Using the strain that lacks efflux pumps ensures no interference from efflux in interpreting results. We next evaluated the steady-state protein expression levels in bacterial cells. […] The observed discrepancy with our results could be attributed to the difference in either the expression vector or host bacteria.
# (§1) For microbiological studies, wild-type blaKPC-2 and its mutant variants were cloned into the shuttle vector pUCP24. Resulting plasmids were transformed in the efflux-deficient strain of P. aeruginosa PAM1154 using selection on 15 μg/ml of gentamicin. Using a strain of P. aeruginosa as opposed to E. coli as a host for various cloned genes was based on the following consideration. As well documented elsewhere ([41]), P. aeruginosa has a low-permeability outer membrane; consequently, the effect of β-lactamases on MIC is amplified in P. aeruginosa compared to that in E. coli due to the slowed uptake of β-lactams. Thus, this host is appropriate to detect β-lactamase activity (as an MIC increase) of low-catalytic-efficiency enzymes that rely heavily on low permeability of the outer membrane. […] MICs were determined using the Clinical and Laboratory Standards Institute (CLSI) broth microdilution method as described in CLSI document M07-A11 ([42]). Potentiation of antibiotic activity by various BLIs in bacterial strains carrying wild-type (WT) and mutant KPC-2 genes was performed using standard checkerboard methodology ([43]). BLI potency was defined as PV50 (PV, potentiation value). PV50 is the minimal concentration of a BLI that is required to reduce the antibiotic MIC to the middle of the MIC range (E50) where the highest MIC is the MIC for a KPC-producing strain with no inhibitor added and the lowest MIC is the MIC for the vector-only strain, corresponding to the complete inhibition of KPC. E50 is calculated as the square root of the product of the antibiotic MICs for the KPC-producing and the vector-only strains.
# [2] = tested on: P. aeruginosa PAM1154 carrying pUCP24-KPC-2 (PAM4135); test: MIC, CLSI broth microdilution; type: cell-based; settings: Pseudomonas aeruginosa; PAM4135, pUCP24-KPC-2; drug alone
# Source text: (§2) The effects of KPC mutations on resistance to various antibiotics were investigated. For these studies, pUCP24 plasmids carrying wild-type and mutant blaKPC-2 genes as well as the pUCP24 vector were transformed into PAM1154, an efflux-deficient strain of Pseudomonas aeruginosa. In this host, the effect of β-lactamases on β-lactam MIC is amplified due to the slowed uptake of β-lactams across the low-permeability outer membrane without interference by efflux of either β-lactams or BLIs. Consequently, this host allows detection of β-lactamase activity (as an MIC increase) of low-catalytic-efficiency enzymes that rely heavily on the low permeability of the outer membrane. Using the strain that lacks efflux pumps ensures no interference from efflux in interpreting results. We next evaluated the steady-state protein expression levels in bacterial cells.
# as §1, with “Potentiation of antibiotic activity by various BLIs in bacterial strains carrying wild-type (WT) and mutant KPC-2 genes was performed using standard checkerboard methodology ([43]).” left out
# [3] = tested on: P. aeruginosa PAM1154 carrying pUCP24-KPC-2::D179Y (PAM4639); test: MIC, CLSI broth microdilution; type: cell-based, Pseudomonas aeruginosa; settings: for MIC: Pseudomonas aeruginosa, PAM4639, pUCP24-KPC-2::D179Y, drug alone
# Source text: as §2
# as §1, with “Potentiation of antibiotic activity by various BLIs in bacterial strains carrying wild-type (WT) and mutant KPC-2 genes was performed using standard checkerboard methodology ([43]).” left out
# [4] = tested on: P. aeruginosa PAM1154 carrying pUCP24-KPC-2::L169P (PAM4751); test: MIC, CLSI broth microdilution; type: cell-based, Pseudomonas aeruginosa; settings: for MIC: Pseudomonas aeruginosa, PAM4751, pUCP24-KPC-2::L169P, drug alone
# Source text: as §2
# as §1, with “Potentiation of antibiotic activity by various BLIs in bacterial strains carrying wild-type (WT) and mutant KPC-2 genes was performed using standard checkerboard methodology ([43]).” left out
# [5] = tested on: P. aeruginosa PAM1154 carrying KPC-2::D179Y (PAM4639); test: Checkerboard potentiation of antibiotic activity by BLIs; type: cell-based, Pseudomonas aeruginosa; settings: for Beta-lactam MIC in the presence of BLI: PAM4639 KPC-2 D179Y
# Source text: BLI potency was defined as PV50 (PV, potentiation value) of antibiotic potentiation. PV50 is the concentration of a BLI that is required to reduce the antibiotic MIC to the middle of the MIC range where the highest MIC is the MIC for a KPC-producing strain with no inhibitor added and the lowest MIC is the MIC for the vector-alone strain, which corresponds to complete inhibition of KPC. As a given MIC is directly related to the β-lactamase activity, PV50 might be considered the concentration of a BLI that is required to achieve half-effect of inhibition of β-lactamase activity (in whole cells) to hydrolyze an antibiotic of interest. […] However, the accurate determination of PV50 requires the MIC range to be relatively wide.
# as §1, with “Potentiation of antibiotic activity by various BLIs in bacterial strains carrying wild-type (WT) and mutant KPC-2 genes was performed using standard checkerboard methodology ([43]).” left out
# […]
# […]
compound,measurement,setting,value
"CO/N=C(\C(=O)N[C@@H]1C(=O)N2C(C(=O)[O-])=C(C[N+]3(C)CCCC3)CS[C@H]12)c1csc(N)n1 [Cefepime, cefepime]",MIC,[1],0.125 µg/mL
same,MIC,[2],256 µg/mL
same,reduction of MIC vs wild-type KPC-2 strain,[3]; D179Y strain,4 fold
same,MIC,[3],64 µg/mL
same,increase of MIC vs vector-only strain,[3]; {},512 fold
same,reduction of MIC vs wild-type KPC-2 strain,[4]; L169P strain,4 fold
same,MIC,[4],64 µg/mL
same,increase of MIC vs vector-only strain,[4]; {},512 fold
same,Antibiotic MIC with avibactam at 4 μg/ml,"[5]; PAM4639 KPC-2::D179Y, avibactam 4 μg/ml",2 µg/mL
same,"Antibiotic MIC, No BLI","[5]; PAM4639 KPC-2::D179Y, no BLI",32 µg/mL
same,Antibiotic MIC with vaborbactam at 8 μg/ml,"[5]; PAM4639 KPC-2::D179Y, vaborbactam 8 μg/ml",0.25 µg/mL
same,Beta-lactam MIC in the presence of BLI,[5]; avibactam 0 µg/ml,32 µg/mL
same,Beta-lactam MIC in the presence of BLI,[5]; avibactam 0.008 µg/ml,32 µg/mL
same,Beta-lactam MIC in the presence of BLI,[5]; avibactam 0.031 µg/ml,32 µg/mL
same,Beta-lactam MIC in the presence of BLI,[5]; avibactam 0.06 µg/ml,32 µg/mL
same,Beta-lactam MIC in the presence of BLI,[5]; avibactam 0.5 µg/ml,16 µg/mL
same,Beta-lactam MIC in the presence of BLI,[5]; avibactam 1 µg/ml,4 µg/mL
same,Beta-lactam MIC in the presence of BLI,[5]; avibactam 2 µg/ml,4 µg/mL
same,Beta-lactam MIC in the presence of BLI,[5]; avibactam 4 µg/ml,2 µg/mL
same,Beta-lactam MIC in the presence of BLI,[5]; avibactam 8 µg/ml,1 µg/mL
same,Beta-lactam MIC in the presence of BLI,[5]; avibactam 16 µg/ml,0.5 µg/mL
same,Beta-lactam MIC in the presence of BLI,[5]; vaborbactam 0 µg/ml,32 µg/mL
same,Beta-lactam MIC in the presence of BLI,[5]; vaborbactam 0.008 µg/ml,32 µg/mL
same,Beta-lactam MIC in the presence of BLI,[5]; vaborbactam 0.031 µg/ml,32 µg/mL
same,Beta-lactam MIC in the presence of BLI,[5]; vaborbactam 0.06 µg/ml,32 µg/mL
same,Beta-lactam MIC in the presence of BLI,[5]; vaborbactam 0.5 µg/ml,8 µg/mL
same,Beta-lactam MIC in the presence of BLI,[5]; vaborbactam 1 µg/ml,1 µg/mL
same,Beta-lactam MIC in the presence of BLI,[5]; vaborbactam 2 µg/ml,0.5 µg/mL
"O=C(O)C[C@@H]1CC[C@H](NC(=O)Cc2cccs2)B(O)O1 [Vaborbactam, vaborbactam]",MIC,[1],> 256 µg/mL
same,MIC,[2],> 256 µg/mL
same,MIC,[3],> 256 µg/mL
same,MIC,[4],> 256 µg/mL
same,PV50,"[5]; PAM4639 KPC-2::D179Y, potentiation of cefepime",1 µg/mL
same,PV50,"[5]; PAM4639 KPC-2::D179Y, potentiation of ceftazidime",1 µg/mL
same,PV50,"[5]; PAM4639 KPC-2::D179Y, potentiation of piperacillin",1 µg/mL
